Read-outs that look alike come from different tables or passages of the source. Where a SMILES comes first, the peptide text is derived from it. [ ]: non-standard residue; d: D form. The star is where a group is joined. Sta = CC(C)C[C@H](N)[C@@H](O)CC(=O)O; Isovaleryl = CC(C)CC(=O)*
Experiments:
[1] = test system: rats; test: effect on spontaneous behavior of rats after ip injection (induction of sleep); type: in vivo, rat; settings: for sleep-inducing pharmacological effect compared with cis-9,10-octadecenoamide: rats, ip
Protocol: Synthetic cis-9,10-octadecenoamide was injected (ip) into rats in order to test its effect on spontaneous behavior at different doses: 1 (n=2), 2 (n=2), 5 (n=7), 10 (n=10), 20 (n=2), and 50 (n=2) mg, where n = number of rats tested. […] However, at a threshold of 5 mg and above there was a marked effect consisting of an induction of long-lasting motor quiescence associated with eyes closed, sedated behavior characteristic of normal sleep. Also as with normal sleep, the rats still responded to auditory stimuli with orienting reflex and sustained attention toward the source of stimulation. In addition, motor behavior was impaired. The latency to behavioral sedation following administration was about 4 minutes and subjects were normally active again after 1 hour (5 mg), 2 hour (10 mg), or 2.5 hour (20 mg and 50 mg).
We have compared cis-9,10-octadecenoamide to vehicle and the synthetic analogs listed in FIG. 1 to estimate the structural specificity of its sleep-inducing potential. […] More particularly, male Sprague-Dawley rats (300 g at the time of surgery) were implanted under halothane anesthesia (2-3%) with a standard set of electrodes for sleep recordings. This included two screw electrodes placed in the parietal bone over the hippocampus to record the subjects electroencephalogram (EEG) and two wire electrodes inserted in the neck musculature to record postural tone through electromyographic activity (EMG). Rats were housed individually with at libitum access to food and water. The dark-light cycle was controlled (12:12, lights on a 10:00 p.m.). One week after the surgery, rats were habituated to the recording conditions for at least three days. Upon the completion of the habituation period, rats received 2 milliliter (ip) of either: vehicle (5% ethanol/saline solution), cis-9,10-octadecenoamide (10 mg), or oleic acid (10 mg). […] Sleep recordings were visually scored and four stages were determined: wakefulness, slow-wave-sleep 1 (SWS1), slow-wave-sleep 2 (SWS2), and rapid eye movement (REM) sleep.

[2] = biological target: T1, FAAH activity of a rat brain membrane fraction (Rattus norvegicus, UniProt P97612); type: biochemical; settings: for inhibition of cis-9,10-octadecenoamide hydrolysis (lipid amidase) activity: 1 mM
T1 construct: Cis-9,10-octadecenoamide with rat brain membrane fraction +1 mM phenylmethylsulfonyl fluoride (PMSF); from tissue; host or cells: rat brain membrane fraction
T1 sequence (P97612 1-579): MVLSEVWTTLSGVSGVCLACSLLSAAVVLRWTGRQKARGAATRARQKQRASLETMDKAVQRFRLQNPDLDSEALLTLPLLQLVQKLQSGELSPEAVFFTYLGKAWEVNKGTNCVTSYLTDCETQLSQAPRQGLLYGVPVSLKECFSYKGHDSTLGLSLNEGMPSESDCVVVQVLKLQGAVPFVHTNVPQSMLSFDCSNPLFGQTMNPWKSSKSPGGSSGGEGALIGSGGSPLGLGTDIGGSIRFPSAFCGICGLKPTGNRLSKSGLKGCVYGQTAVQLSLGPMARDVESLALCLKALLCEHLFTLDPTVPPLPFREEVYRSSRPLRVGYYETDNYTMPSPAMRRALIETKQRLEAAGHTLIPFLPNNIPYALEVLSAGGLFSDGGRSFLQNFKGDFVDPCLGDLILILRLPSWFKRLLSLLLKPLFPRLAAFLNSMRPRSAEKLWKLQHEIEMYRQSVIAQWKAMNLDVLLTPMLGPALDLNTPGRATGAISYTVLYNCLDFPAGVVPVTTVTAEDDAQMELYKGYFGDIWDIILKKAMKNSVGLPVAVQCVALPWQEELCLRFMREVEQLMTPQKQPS
Protocol: In each case the enzymic reaction is performed is a separate reaction vessel and the product is spotted onto a TLC plate.

[3] = biological target: T2, recombinant expressed rat FAAH (Rattus norvegicus, UniProt P97612); test: FAAH hydrolysis assays with 14C-labeled fatty acid amide substrates (TLC, scintillation counting); type: biochemical; settings: for Rate of Hydrolysis: 35 μg transfected COS-7 cell protein, 5 minutes, 37° C.
T2 construct: expressed in transfected cells; host or cells: COS-7 cells, transient, pcDNA3; dounce-homogenised cell extract
T2 sequence (P97612 1-579): T1 sequence (P97612 1-579)
Protocol: Therefore, COS-7 cells transfected with the rat FAAH cDNA were assayed for anandamide hydrolase activity. To assess the enzymatic activity of the expressed recombinant fatty acid amide hydrolases of this invention on labeled anandamide, the following enzymatic assay was performed. ^14C-anandamide was synthesized as follows: 12.5 μCi (specific activity of 50 μCi/μM) of ^14C arachidonic acid (Moravek Biochemicals) was dissolved in 100 μl CH2Cl2, cooled to 0° C., and treated with excess oxalyl chloride. The reaction mixture was stirred at 25° C. for 6 hours, after which time the solvent was evaporated. The remaining residue was cooled to 0° C., treated with a large excess of ethanolamine, and stirred at 25° C. for 15 minutes. The reaction mixture was then partitioned between ethyl acetate and 2 M HCl, and the organic layer was washed with water and then evaporated to dryness. The resulting ^14C-anandamide was diluted with unlabeled anandamide to a final specific activity of 5 μCi/μM in ethanol. Approximately 1 μCi of ^14C-anandamide and 20 μl of dounce homogenized COS-7 cell extract were used for each anandamide hydrolase assay as detailed above for the oleamide hydrolase assays. Briefly, FAAH hydrolysis assays were conducted in triplicate with 100 μM substrate, 35 μg of rat transfected COS-7 cell protein for 5 minutes at 37° C. (except in the case of stearic amide, where due to low solubility, 20 μM substrate comparison to oleamide were conducted). Products were separated on TLC as described previously, scraped into scintillation fluid, and radioactivity was quantitated by scintillation counting. Substrate hydrolysis in the presence of equal amounts of untransfected COS-7 cell protein extract served as background control in all cases and was substracted from FAAH hydrolysis rates to give the data as presented below.
To further assess the substrate specificity spectrum of enyzmatic hydolytic activity of the recombinant expressed proteins of this invention, other ^14C-labeled fatty acid amides were synthesized as described in Section B6 and above for ^14C-oleamide, with the exception of anandamide as described.
Where indicated in the table the anandamide and oleamide hydrolysis rates are considered to be 100% of FAAH activity to which other fatty acid amide hydrolysis rates are compared.

[4] = test system: amidase activity which catalyzes both the hydrolysis and synthesis of arachidonylethanolamide (anandamide); settings: cited from earlier work

## CCCCCCCCC/C=C\CCCCCCC(N)=O [Compound 3, Cis-8,9-octadecenoamide]
[1]
  sleep-inducing pharmacological effect compared with cis-9,10-octadecenoamide: substantial reduction in both the degree and duration of the pharmacological effects

## CCCCCC/C=C\CCCCCCCCCC(N)=O [Compound 4, Cis-11,12-octadecenoamide]
[1]
  sleep-inducing pharmacological effect compared with cis-9,10-octadecenoamide: substantial reduction in both the degree and duration of the pharmacological effects

## CCCCCCCC/C=C\CCCCCCCCCCCC(N)=O [Compound 6, Erucamide]
[1]
  sleep-inducing pharmacological effect compared with cis-9,10-octadecenoamide: substantial reduction in both the degree and duration of the pharmacological effects

## [Cl][Hg][Cl] [HgCl2, mercuric chloride]
[2]; 50 mM
  inhibition of lipid amidase activity: inhibited

## CCCCCCCCCCCCCC(N)=O [Myristic Amide, myristic amide]
[3]; 100 μM substrate
  % of FAAH activity (anandamide hydrolysis rate = 100%): 24.3%
  Rate of Hydrolysis: 81 ± 7 nmol/min/mg

## O=S(=O)(F)Cc1ccccc1 [PMSF, phenylmethylsulfonyl fluoride]
[2]
  inhibition of cis-9,10-octadecenoamide hydrolysis (lipid amidase) activity: inhibited
[2]; listed as phenylmethylsulfonyl fluoride
  inhibition of cis-9,10-octadecenoamide hydrolysis (lipid amidase) activity: completely inhibited
[4]; 1.5 mM concentration
  inhibition of the amidase activity: completely inhibited

## CCCCCCCCCCCCCCCC(N)=O [Palmitic Amide, palmitic amide]
[3]; 100 μM substrate
  % of FAAH activity (anandamide hydrolysis rate = 100%): 9.9%
  Rate of Hydrolysis: 33 ± 2 nmol/min/mg

## CCCCCCCCCCCCCCCCCC(N)=O [Stearic Amide, stearic amide]
[3]; 20 μM substrate
  % of FAAH activity (oleamide hydrolysis rate = 100%): 5.8%
  Rate of Hydrolysis: 2.3 ± 1 nmol/min/mg

## CCCCCCCC/C=C/CCCCCCCC(N)=O [Trans-9,10-octadecenoamide]
[1]; 10 mg per rat
  duration of the biological (sleep-inducing) effect: one hour
[1]
  sleep-inducing pharmacological effect compared with cis-9,10-octadecenoamide: much less potent

## N=C(N)c1ccccc1 [benzamidine]
[4]
  effect of other inhibitors on the amidase activity: little or no effect

## CC(C)C[C@H](NC(=O)[C@@H](NC(=O)N[C@@H](Cc1ccccc1)C(=O)O)[C@@H]1CCN=C(N)N1)C(=O)N[C@H](C=O)Cc1ccccc1 [chymostatin]
[4]
  effect of other inhibitors on the amidase activity: little or no effect

## CC(=O)N[C@@H](CC(C)C)C(=O)N[C@@H](CC(C)C)C(=O)N[C@H](C=O)CCCNC(=N)N [leupeptin]
[4]
  effect of other inhibitors on the amidase activity: little or no effect

## CCCCCCCC/C=C\CCCCCCCC(=O)O [oleic acid, Oleic Acid]
[1]
  sleep-inducing pharmacological effect compared with cis-9,10-octadecenoamide: nor oleic acid (5) showed any overt behavioral effect

## CC(C)CC(=O)N[C@H](C(=O)N[C@H](C(=O)N[C@@H](CC(C)C)[C@@H](O)CC(=O)N[C@@H](C)C(=O)N[C@@H](CC(C)C)[C@@H](O)CC(=O)O)C(C)C)C(C)C [pepstatin] (Isovaleryl-VV[Sta]A[Sta]-OH)
[4]
  effect of other inhibitors on the amidase activity: little or no effect

## aprotinin
[4]
  effect of other inhibitors on the amidase activity: little or no effect

Source: US6699682B2, “Assay for inhibitors of fatty-acid amide hydrolase” (The Scripps Research Institute, priority 1995, dated 2004)
